Read-outs that look alike come from different tables or passages of the source. Square brackets hold non-standard residues; d marks the D form. Peptide text beside a SMILES is read from it. * marks the point of attachment. X1 = O=C(CSCC(=O)*)NCCN1C(=O)c2ccccc2C1=O; X4 = CC(C)(C(=O)NCCN1C(=O)CSC1=O)C(=O)*; Aib = CC(C)(N)C(=O)O
Columns and labels:
Assay type in all cases: cell-based
GIP-R = target: T1, GIP-R (Homo sapiens, UniProt P48546); test: HitHunter cAMP assay (GIP-R); conditions: for Emax: read-out: (Emax) GIP-R
T1 sequence (P48546 22-466): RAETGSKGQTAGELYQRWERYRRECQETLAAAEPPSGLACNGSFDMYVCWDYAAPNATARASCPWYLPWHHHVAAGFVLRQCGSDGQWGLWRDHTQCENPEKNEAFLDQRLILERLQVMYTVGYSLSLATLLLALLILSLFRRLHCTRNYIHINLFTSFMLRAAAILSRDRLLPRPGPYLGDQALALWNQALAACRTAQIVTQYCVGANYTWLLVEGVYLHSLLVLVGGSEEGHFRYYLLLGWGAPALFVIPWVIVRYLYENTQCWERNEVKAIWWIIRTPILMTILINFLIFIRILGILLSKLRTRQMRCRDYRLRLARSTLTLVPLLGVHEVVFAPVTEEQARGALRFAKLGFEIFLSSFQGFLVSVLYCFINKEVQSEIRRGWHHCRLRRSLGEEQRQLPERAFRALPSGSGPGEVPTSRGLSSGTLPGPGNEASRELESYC
Outline: (§1)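 Cells were resuspended in HBSS plus HEPES, IBMX (625 μM) and BSA, then dispensed with antibody at 10,000 per well. Agonists followed as 22-point twofold series, 30 min at room temperature. Antibody reagent and detection steps ran 1 h and overnight in the dark before luminescence.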

GLP-1R [1] = target: T2, GLP-1R (Homo sapiens, UniProt P43220); test: PathHunter β-arrestin assay
T2 sequence (P43220 24-463): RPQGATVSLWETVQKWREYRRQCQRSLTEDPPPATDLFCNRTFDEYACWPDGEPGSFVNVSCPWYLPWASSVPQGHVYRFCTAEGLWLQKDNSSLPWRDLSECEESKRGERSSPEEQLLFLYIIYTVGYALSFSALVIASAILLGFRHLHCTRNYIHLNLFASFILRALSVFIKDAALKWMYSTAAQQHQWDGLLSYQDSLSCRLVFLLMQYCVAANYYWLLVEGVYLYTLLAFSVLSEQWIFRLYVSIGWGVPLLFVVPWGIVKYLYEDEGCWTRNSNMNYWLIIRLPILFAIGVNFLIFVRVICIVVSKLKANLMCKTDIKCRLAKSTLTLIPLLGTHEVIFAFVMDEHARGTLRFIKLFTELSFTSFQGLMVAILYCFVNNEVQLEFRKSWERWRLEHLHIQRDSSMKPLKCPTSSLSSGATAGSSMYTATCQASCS
Outline: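 Agonist concentration–response (22 points, 2-fold steps, duplicates) was run on cells plated the previous day in BSA-supplemented (0.2%) medium. Stimulation lasted 90 min at 37 °C, followed by a 3 h dark incubation with detection reagent at room temperature and a luminescence read.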

GLP-1R [2] = target: T2, GLP-1R; test: HitHunter cAMP assay (GLP-1R); conditions: for Emax: read-out: (Emax) GLP-1R
Outline: as §1

[3] = read-out: EC50 GLP-1R/nM, Table 3A, cAMP
[4] = Table 3, cAMP, read-out: EC50 GIP-R/nM
[5] = Table 3A, cAMP, read-out: EC50 GIP-R/nM
[6] = PathHunter β-arrestin assay, read-out: β-arrestin activity EC50
[7] = Table 3, cAMP, read-out: EC50 GLP-1R/nM
[8] = Table 3A, cAMP, read-out: EC50 GLP-1R/nM

| SMILES | Emax (GIP-R; Table 3, cAMP) [%] | Emax (GIP-R; Table 3A, cAMP) [%] | EC50 (GLP-1R [1]) [nM] | Emax (GLP-1R [2]; Table 3, cAMP) [%] | Emax (GLP-1R [2]; Table 3A, cAMP) [%] | EC50 (GLP-1R [2]; [3]) [nM] | EC50 (GIP-R; [4]) [nM] | EC50 (GIP-R; [5]) [nM] | EC50 (GLP-1R [1]; [6]) [nM] | EC50 (GLP-1R [2]; [7]) [nM] | EC50 (GLP-1R [2]; [8]) [nM] | EC50 (GIP-R; EC50 GIP-R/nM, Table 3, cAMP) [nM] | EC50 (GIP-R; EC50 GIP-R/nM, Table 3A, cAMP) [nM] | other results |
| --- | --- | --- | --- | --- | --- | --- | --- | --- | --- | --- | --- | --- | --- | --- |
| CC[C@H](C)[C@H](NC(=O)[C@H](CO)NC(=O)[C@H](Cc1ccc(O)cc1)NC(=O)[C@H](CC(=O)O)NC(=O)[C@H](CO)NC(=O)[C@@H](NC(=O)[C@H](Cc1ccccc1)NC(=O)[C@@H](NC(=O)CNC(=O)[C@H](CCC(=O)O)NC(=O)C(C)(C)C(=O)NCCCN1C(=O)c2ccc(C)cc2C1=O)[C@@H](C)O)[C@@H](C)O)C(=O)N[C@@H](Cc1ccc(O)cc1)C(=O)N[C@@H](CC(C)C)C(=O)N[C@@H](CC(=O)O)C(=O)N[C@@H](CCCCN)C(=O)N[C@@H](CCC(N)=O)C(=O)N[C@@H](C)C(=O)N[C@@H](C)C(=O)NC(C)(C)C(=O)N[C@@H](CCC(=O)O)C(=O)N[C@@H](Cc1ccccc1)C(=O)N[C@H](C(=O)N[C@@H](CC(N)=O)C(=O)N[C@@H](Cc1c[nH]c2ccccc12)C(=O)N[C@@H](CC(C)C)C(=O)N[C@@H](CC(C)C)C(=O)N[C@@H](C)C(=O)NCC(=O)NCC(=O)N1CCC[C@H]1C(=O)N[C@@H](CO)C(=O)N[C@@H](CO)C(=O)NCC(=O)N[C@@H](C)C(=O)N1CCC[C@H]1C(=O)N1CCC[C@H]1C(=O)N1CCC[C@H]1C(=O)N[C@@H](CO)C(=O)N[C@@H](CCCCN)C(N)=O)C(C)C [Compound 129] | 102 to 109 | 102 to 109 | > 1000 | 91 to 95 | 91 to 95 | 1 to 100 |  |  |  |  |  |  |  | EC50 (GIP-R; read-out: EC50 GIP-R/nM, Table 3, cAMP): 0.1 to 10 nM; EC50 (GIP-R; read-out: EC50 GIP-R/nM, Table 3A, cAMP): 0.1 to 10 nM; EC50 (GLP-1R [2]; read-out: EC50 GLP-1R/nM, Table 3, cAMP): 1 to 100 nM |
| CC[C@H](C)[C@H](NC(=O)[C@H](CO)NC(=O)[C@H](Cc1ccc(O)cc1)NC(=O)[C@H](CC(=O)O)NC(=O)[C@H](CO)NC(=O)[C@@H](NC(=O)[C@H](Cc1ccccc1)NC(=O)[C@@H](NC(=O)CNC(=O)[C@H](CCC(=O)O)NC(=O)C(C)(C)NC(=O)CCN1C(=O)CSC1=O)[C@@H](C)O)[C@@H](C)O)C(=O)N[C@@H](Cc1ccc(O)cc1)C(=O)N[C@@H](CC(C)C)C(=O)N[C@@H](CC(=O)O)C(=O)N[C@@H](CCCCN)C(=O)N[C@@H](CCC(N)=O)C(=O)N[C@@H](C)C(=O)N[C@@H](C)C(=O)NC(C)(C)C(=O)N[C@@H](CCC(=O)O)C(=O)N[C@@H](Cc1ccccc1)C(=O)N[C@H](C(=O)N[C@@H](CC(N)=O)C(=O)N[C@@H](Cc1c[nH]c2ccccc12)C(=O)N[C@@H](CC(C)C)C(=O)N[C@@H](CC(C)C)C(=O)N[C@@H](C)C(=O)NCC(=O)NCC(=O)N1CCC[C@H]1C(=O)N[C@@H](CO)C(=O)N[C@@H](CO)C(=O)NCC(=O)N[C@@H](C)C(=O)N1CCC[C@H]1C(=O)N1CCC[C@H]1C(=O)N1CCC[C@H]1C(=O)N[C@@H](CO)C(=O)N[C@@H](CCCCN)C(N)=O)C(C)C [Compound 130] | 64 | 64 |  | 114 | 114 |  | 1 to 10 | 1 to 10 | > 1000 | 0.1 to 1 | 0.1 to 1 |  |  |  |
| CC[C@H](C)[C@H](NC(=O)[C@H](CO)NC(=O)[C@H](Cc1ccc(O)cc1)NC(=O)[C@H](CC(=O)O)NC(=O)[C@H](CO)NC(=O)[C@@H](NC(=O)[C@H](Cc1ccccc1)NC(=O)[C@@H](NC(=O)CNC(=O)[C@H](CCC(=O)O)NC(=O)C(C)(C)C(=O)NCCN1C(=O)CSC1=O)[C@@H](C)O)[C@@H](C)O)C(=O)N[C@@H](Cc1ccc(O)cc1)C(=O)N[C@@H](CC(C)C)C(=O)N[C@@H](CC(=O)O)C(=O)N[C@@H](CCCCN)C(=O)N[C@@H](CCC(N)=O)C(=O)N[C@@H](C)C(=O)N[C@H](C(=O)NC(C)(C)C(=O)N[C@@H](CCC(=O)O)C(=O)N[C@@H](Cc1ccccc1)C(=O)N[C@H](C(=O)N[C@@H](CC(N)=O)C(=O)N[C@@H](Cc1c[nH]c2ccccc12)C(=O)N[C@@H](CC(C)C)C(=O)N[C@@H](CC(C)C)C(=O)N[C@@H](C)C(=O)NCC(=O)NCC(=O)N1CCC[C@H]1C(=O)N[C@@H](CO)C(=O)N[C@@H](CO)C(=O)NCC(=O)N[C@@H](C)C(=O)N1CCC[C@H]1C(=O)N1CCC[C@H]1C(=O)N1CCC[C@H]1C(=O)N[C@@H](CO)C(=O)N[C@@H](CCCCN)C(N)=O)[C@@H](C)CC)C(C)C [Compound 132] (X4-EGTFTSDYSIYLDKQAV[Aib]EFINWLLAGGPSSGAPPPSK-NH2) | 61 to 64 | 61 to 64 |  | 103 to 114 | 103 to 114 |  | 1 to 10 | 1 to 10 | 10 to 1000 | < 0.1 | < 0.1 |  |  |  |
| CC[C@H](C)[C@H](NC(=O)[C@H](CO)NC(=O)[C@H](Cc1ccc(O)cc1)NC(=O)[C@H](CC(=O)O)NC(=O)[C@H](CO)NC(=O)[C@@H](NC(=O)[C@H](Cc1ccccc1)NC(=O)[C@@H](NC(=O)CNC(=O)[C@H](CCC(=O)O)NC(=O)CSCC(=O)NCCN1C(=O)c2ccccc2C1=O)[C@@H](C)O)[C@@H](C)O)C(=O)N[C@@H](Cc1ccc(O)cc1)C(=O)N[C@@H](CC(C)C)C(=O)N[C@@H](CC(=O)O)C(=O)N[C@@H](CCCCN)C(=O)N[C@@H](CCC(N)=O)C(=O)N[C@@H](C)C(=O)N[C@H](C(=O)NC(C)(C)C(=O)N[C@@H](CCC(=O)O)C(=O)N[C@@H](Cc1ccccc1)C(=O)N[C@H](C(=O)N[C@@H](CC(N)=O)C(=O)N[C@@H](Cc1c[nH]c2ccccc12)C(=O)N[C@@H](CC(C)C)C(=O)N[C@@H](CC(C)C)C(=O)N[C@@H](C)C(=O)NCC(=O)NCC(=O)N1CCC[C@H]1C(=O)N[C@@H](CO)C(=O)N[C@@H](CO)C(=O)NCC(=O)N[C@@H](C)C(=O)N1CCC[C@H]1C(=O)N1CCC[C@H]1C(=O)N1CCC[C@H]1C(=O)N[C@@H](CO)C(=O)N[C@@H](CCCCN)C(N)=O)[C@@H](C)CC)C(C)C [Compound 133] (X1-EGTFTSDYSIYLDKQAV[Aib]EFINWLLAGGPSSGAPPPSK-NH2) | 104 | 104 | > 1000 | 98 | 98 |  |  |  |  |  |  | 0.1 to 1 | 0.1 to 1 | EC50 (GLP-1R [2]; EC50 GLP-1R/nM, Table 3, cAMP): 1 to 10 nM; EC50 (GLP-1R [2]; EC50 GLP-1R/nM, Table 3A, cAMP): 1 to 10 nM |
| CC[C@H](C)[C@H](NC(=O)[C@H](CO)NC(=O)[C@H](Cc1ccc(O)cc1)NC(=O)[C@H](CC(=O)O)NC(=O)[C@H](CO)NC(=O)[C@@H](NC(=O)[C@H](Cc1ccccc1)NC(=O)[C@@H](NC(=O)CNC(=O)[C@H](CCC(=O)O)NC(=O)C1(C(=O)NCCN2C(=O)CSC2=O)CCC1)[C@@H](C)O)[C@@H](C)O)C(=O)N[C@@H](Cc1ccc(O)cc1)C(=O)N[C@@H](CC(C)C)C(=O)N[C@@H](CC(=O)O)C(=O)N[C@@H](CCCCN)C(=O)N[C@@H](CCC(N)=O)C(=O)N[C@@H](C)C(=O)N[C@@H](C)C(=O)NC(C)(C)C(=O)N[C@@H](CCC(=O)O)C(=O)N[C@@H](Cc1ccccc1)C(=O)N[C@H](C(=O)N[C@@H](CC(N)=O)C(=O)N[C@@H](Cc1c[nH]c2ccccc12)C(=O)N[C@@H](CC(C)C)C(=O)N[C@@H](CC(C)C)C(=O)N[C@@H](C)C(=O)NCC(=O)NCC(=O)N1CCC[C@H]1C(=O)N[C@@H](CO)C(=O)N[C@@H](CO)C(=O)NCC(=O)N[C@@H](C)C(=O)N1CCC[C@H]1C(=O)N1CCC[C@H]1C(=O)N1CCC[C@H]1C(=O)N[C@@H](CO)C(=O)N[C@@H](CCCCN)C(N)=O)C(C)C [Compound 134] |  |  | 10 to 1000 |  |  | < 0.1 |  |  |  |  |  | 10 to 100 | 10 to 100 | Emax (GIP-R): 30%; EC50 (GLP-1R [2]): < 0.1 nM; (Emax) GLP-1R (GLP-1R [2]; Table 3A, cAMP): 103-108%; Emax (GLP-1R [2]): 103 to 108% |
| CC[C@H](C)[C@H](NC(=O)[C@H](CO)NC(=O)[C@H](Cc1ccc(O)cc1)NC(=O)[C@H](CC(=O)O)NC(=O)[C@H](CO)NC(=O)[C@@H](NC(=O)[C@H](Cc1ccccc1)NC(=O)[C@@H](NC(=O)CNC(=O)[C@H](CCC(=O)O)NC(=O)C1(C(=O)NCCN2C(=O)CSC2=O)CC1)[C@@H](C)O)[C@@H](C)O)C(=O)N[C@@H](Cc1ccc(O)cc1)C(=O)N[C@@H](CC(C)C)C(=O)N[C@@H](CC(=O)O)C(=O)N[C@@H](CCCCN)C(=O)N[C@@H](CCC(N)=O)C(=O)N[C@@H](C)C(=O)N[C@@H](C)C(=O)NC(C)(C)C(=O)N[C@@H](CCC(=O)O)C(=O)N[C@@H](Cc1ccccc1)C(=O)N[C@H](C(=O)N[C@@H](CC(N)=O)C(=O)N[C@@H](Cc1c[nH]c2ccccc12)C(=O)N[C@@H](CC(C)C)C(=O)N[C@@H](CC(C)C)C(=O)N[C@@H](C)C(=O)NCC(=O)NCC(=O)N1CCC[C@H]1C(=O)N[C@@H](CO)C(=O)N[C@@H](CO)C(=O)NCC(=O)N[C@@H](C)C(=O)N1CCC[C@H]1C(=O)N1CCC[C@H]1C(=O)N1CCC[C@H]1C(=O)N[C@@H](CO)C(=O)N[C@@H](CCCCN)C(N)=O)C(C)C [Compound 135] | 15 to 22 | 15 to 22 |  | 106 to 111 | 106 to 111 |  | 10 to 100 | 10 to 1000 | > 1000 | < 1 | < 1 |  |  |  |

Reference: US20260176320A1, “MODULATORS OF G-PROTEIN COUPLED RECEPTORS” (priority 2018, published 2026)
